# In paper PMC3720812, “YjcC, a c-di-GMP Phosphodiesterase Protein, Regulates the Oxidative Stress Response and Virulence of Klebsiella pneumoniae CG43” (PLoS ONE, 2013):
# Legend:
# MrkJ = target: T1, MrkJ (Klebsiella pneumoniae, UniProt G3FT02); experiment: release of p-nitrophenol at […] nm; assay type: biochemical; details: positive control enzyme; activity only in figure
# T1 construct: recombinant from pET30b-mrkJ, E. coli BL21(DE3), purified
# YjcC-EAL domain = target: T2, YjcC-EAL domain (Klebsiella pneumoniae, UniProt A6TGY2); experiment: release of p-nitrophenol at […] nm; assay type: biochemical; details: chromogenic model substrate; activity only in figure
# T2 construct: EAL domain only (C-terminal)
# T2 sequence (A6TGY2 entry or part of it): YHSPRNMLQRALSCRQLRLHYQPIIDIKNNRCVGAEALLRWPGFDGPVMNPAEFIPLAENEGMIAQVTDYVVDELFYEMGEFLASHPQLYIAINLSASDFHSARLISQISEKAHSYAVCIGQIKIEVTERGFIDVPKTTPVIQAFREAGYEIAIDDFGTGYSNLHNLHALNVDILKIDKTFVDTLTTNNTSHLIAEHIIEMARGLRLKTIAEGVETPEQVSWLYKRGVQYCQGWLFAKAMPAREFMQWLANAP
# T1 sequence (G3FT02 entry or part of it): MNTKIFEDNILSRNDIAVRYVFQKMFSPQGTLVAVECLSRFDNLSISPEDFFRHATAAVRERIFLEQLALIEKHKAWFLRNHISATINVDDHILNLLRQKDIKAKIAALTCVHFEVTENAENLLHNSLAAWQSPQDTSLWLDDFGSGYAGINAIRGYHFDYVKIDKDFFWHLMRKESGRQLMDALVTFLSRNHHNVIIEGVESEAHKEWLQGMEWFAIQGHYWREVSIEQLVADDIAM
smiles,measurement,setting,value
O=[N+]([O-])c1ccc(OP(=O)(O)Oc2ccc([N+](=O)[O-])cc2)cc1 [bis(p-nitrophenyl) phosphate],specific PDE activity,MrkJ,This activity is lower than the level of the recombinant MrkJ
same,specific PDE activity,YjcC-EAL domain,the purified EAL domain protein exhibits PDE activity towards pNpp
